{"source": "patent US20250042969A1", "about": "“ANTIGEN DISCOVERY FOR T CELL RECEPTORS ISOLATED FROM PATIENT TUMORS RECOGNIZING WILD-TYPE ANTIGENS AND POTENT PEPTIDE MIMOTOPES” (The Board of Trustees of the Leland Stanford Junior …, priority 2017, published 2025)", "key": {"NKI2": {"tested_on": "NKI2", "assay": "IFNγ production by NKI2-transduced peripheral blood lymphocytes with peptide-pulsed JY cells", "format": "cell-based, human", "conditions": "1:1 with peptide-pulsed JY cells, 5-hour incubation, intracellular staining", "experimental": "CDK4-specific TCRs clone 10 (NKI1) and 17 (NKI2) were derived from TILs of a melanoma patient that were screened with HLA multimers loaded with predicted neoantigens, essentially as described. The variable parts of both TCRs were cloned into a retroviral vector encoding the murine TCR α and β constant domains. FLYRD18 packaging cells were plated in 10 cm dishes at 1.2×10^6 cells/well. After one day, cells were transfected with 10 μg retroviral vector DNA encoding the CDK4 TCRs using 25 μl X-tremeGENE HP DNA (Sigma-Aldrich). After 48 hrs, retroviral supernatant was isolated and transferred to retronectin-coated 24-well plates and centrifuged for 90 minutes at 430 g. PBMCs were activated and selected with anti-CD3/CD28 beads (ThermoFisher) at a bead-to-cell ratio of 3:1. Forty-eight hours after stimulation, T cells were plated at 0.5×10^6 cells/mL on virus-coated plates. Surface expression of the introduced CDK4 TCRs on transduced T cells was measured using APC labeled CDK4 R>L HLA-A*02:01 tetramers in combination with anti-murine VB TCR-PE labeled antibody (BD Biosciences). Cells were analyzed using a FACSCalibur (Becton Dickinson). JY cells were pulsed with the CDK4 peptide or the predicted peptides at the indicated concentrations for 1 hr at 37° C. and then washed two times. […]"}, "TCR 4B": {"tested_on": "TCR 4B", "assay": "CD69 activation of SKW-3 T cells expressing TCR 4B co-cultured with peptide-pulsed T2 cells", "conditions": "T2 cells pulsed with 100 μM peptide 3 hours, co-incubated 18 hours, flow cytometry"}, "TCR 2A [1]": {"tested_on": "TCR 2A", "assay": "CD69 activation of SKW-3 T cells expressing TCR 2A co-cultured with peptide-pulsed T2 cells", "conditions": "T2 cells pulsed with 100 μM peptide 3 hours, co-incubated 18 hours, flow cytometry"}, "TCR 3B [2]": {"tested_on": "TCR 3B", "assay": "CD69 activation of SKW-3 T cells expressing TCR 3B co-cultured with peptide-pulsed T2 cells", "conditions": "T2 cells pulsed with 100 μM peptide 3 hours, co-incubated 18 hours, flow cytometry"}, "TCR 2A [3]": {"tested_on": "TCR 2A", "assay": "TCR 2A tetramer staining of yeast expressing single-chain peptide-HLA-A*02:01", "format": "binding, human", "conditions": "400 nM TCR tetramer", "experimental": "(§1) Individual yeast clones isolated from the selections or competent yeast electroporated with reconstructed peptide-HLA constructs identified from the deep sequencing were stained with 400 nM TCR tetramer labeled with SA-647 or SA-647 alone in combination with anti-epitope tag."}, "[4]": {"tested_on": "SKW-3 cells expressing TCR 3B", "assay": "pHLA tetramer staining of SKW-3 cells expressing TCR 3B", "format": "binding, human"}, "TCR 3B [5]": {"tested_on": "TCR 3B", "assay": "TCR 3B tetramer staining of yeast expressing single-chain peptide-HLA-A*02:01", "format": "binding, human", "conditions": "400 nM TCR tetramer", "experimental": "as §1"}, "[6]": {"tested_on": "SKW-3 cells expressing TCR2A", "assay": "pHLA tetramer staining of SKW-3 cells expressing TCR2A", "format": "binding, human"}}, "note": "No end group written: not given here.", "data": [{"substance": "ALDSRSEHFM [top peptide mimotope selected by NKI2]", "values": [{"measurement": "IFNγ production by NKI2 transduced T cells", "setting": "NKI2", "value": "stimulated these cells as potently as the CDK4 neoantigen"}]}, {"substance": "KLEQLDWTV", "values": [{"measurement": "CD69 activation of TCR 4B T cell line", "setting": "TCR 4B", "value": "stimulated"}]}, {"substance": "LLEDLDWDV", "values": [{"measurement": "CD69 activation of TCR 4B T cell line", "setting": "TCR 4B", "value": "stimulated"}]}, {"substance": "MMDFFNAQM", "values": [{"measurement": "CD69 activation of TCR 2A T cell line", "setting": "TCR 2A [1]", "value": "found to stimulate T cells"}, {"measurement": "CD69 activation of TCR 3B T cell line", "setting": "TCR 3B [2]", "value": "found to stimulate T cells"}]}, {"substance": "MMDFFNAQM-HLA-A*02:01: U2AF2 peptide MMDFFNAQM in complex with HLA-A*02:01, as yeast single-chain trimer or refolded tetramer (not fully specified (C-terminus); also: in complex with HLA-A*02:01 (single-chain trimer or refolded tetramer))", "values": [{"measurement": "TCR 2A tetramer staining of yeast", "setting": "TCR 2A [3]", "value": "lack of TCR tetramer staining"}, {"measurement": "pHLA tetramer staining of SKW-3 cells expressing TCR 3B", "setting": "[4]", "value": "failed to stain"}, {"measurement": "TCR 3B tetramer staining of yeast", "setting": "TCR 3B [5]", "value": "lack of TCR tetramer staining"}, {"measurement": "pHLA tetramer staining of SKW-3 cells expressing TCR2A", "setting": "[6]", "value": "failed to stain"}]}, {"substance": "NMEYMTWDV", "values": [{"measurement": "CD69 activation of TCR 4B T cell line", "setting": "TCR 4B", "value": "stimulated"}]}, {"substance": "NVEYYDIKL", "values": [{"measurement": "CD69 activation of TCR 4B T cell line", "setting": "TCR 4B", "value": "stimulated"}]}, {"substance": "TLEELDWCL", "values": [{"measurement": "CD69 activation of TCR 4B T cell line", "setting": "TCR 4B", "value": "stimulated"}]}, {"substance": "TMETIDWKV", "values": [{"measurement": "CD69 activation of TCR 4B T cell line", "setting": "TCR 4B", "value": "stimulated"}]}, {"substance": "VLDFQGQL", "values": [{"measurement": "CD69 activation of TCR 2A T cell line", "setting": "TCR 2A [1]", "value": "able to stimulate the receptor"}]}, {"substance": "VLEEVDWLI", "values": [{"measurement": "CD69 activation of TCR 4B T cell line", "setting": "TCR 4B", "value": "stimulated"}]}]}
